Experimental data taken from US10717742B2, “Spiro[3H-indole-3,2′-pyrrolidin]-2(1H)-one compounds and derivatives as MDM2-P53 inhibitors” (Boehringer Ingelheim International GmbH, priority 2015, dated 2020).
pIC50: −log10 of the molar value.

Target: p53-MDM2 interaction (GST-MDM2 protein aa 23-117 / biotinylated p53 wt peptide) (Homo sapiens (Human), UniProt Q00987)
Assay: Mdm2-p53 Inhibition AlphaScreen
Type: binding
Conditions: GST-MDM2 (aa 23-117) / biotinylated p53 wt peptide
Method: Mdm2-p53 Inhibition AlphaScreen
15 μL of compound in 20% DMSO (serial pre-dilutions of compound are done in 100% DMSO) is pipetted to the wells of a white OptiPlate-96 (Perkin Elmer). A mix consisting of 20 nM GST-MDM2 protein (aa 23-117) and 20 nM biotinylated p53 wt peptide (encompassing aa 16-27 of wt human p53, amino acid sequence […]-Ttds-Lys-Biotin, molecular weight 2132.56 g/mol) is prepared in assay buffer (50 mM Tris/HCl pH 7.2; 120 mM NaCl; 0.1% bovine serum albumin (BSA); 5 mM dithiothreitol (DTT); 1 mM ethylenediaminetetraacetic acid (EDTA); 0.01% Tween 20). 30 μL of the mix is added to the compound dilutions and incubated for 15 min at rt while gently shaking the plate at 300 rounds per minute (rpm). Subsequently, 15 μL of premixed AlphaLISA Glutathione Acceptor Beads and AlphaScreen Streptavidin Donor Beads from PerkinElmer (in assay buffer at a concentration of 10 μg/mL each) are added and the samples are incubated for 30 min at rt in the dark (shaking 300 rpm). Afterwards, the signal is measured in a PerkinElmer Envision HIS Multilabel Reader using the AlphaScreen protocol from Perkin Elmer.
Each plate contains negative controls where biotinylated p53-peptide and GST-MDM2 are left out and replaced by assay buffer. Negative control values are entered as low basis value when using the software GraphPad Prism for calculations. Furthermore, a positive control (5% DMSO instead of test compound; with protein/peptide mix) is pipetted. Determination of IC50 values are carried out using GraphPad Prism 3.03 software (or updates thereof).

Sequence of p53-MDM2 interaction (GST-MDM2 protein aa 23-117 / biotinylated p53 wt peptide) (Q00987 23-117): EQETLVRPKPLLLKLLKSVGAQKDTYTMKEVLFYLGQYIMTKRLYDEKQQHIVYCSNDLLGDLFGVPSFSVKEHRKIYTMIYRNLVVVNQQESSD

pIC50	Compound
7.55	O=C(O)C1(c2ccc3c(c2)nc2n3CC[C@H]3[C@@H]2[C@H](c2cccc(Cl)c2F)[C@]2(C(=O)Nc4cc(Cl)ccc42)N3CC2CC2)CC1 [Ib-165]
7.66	CC(C)(C(=O)O)c1ccc2c(c1)nc1n2CC[C@H]2[C@@H]1[C@H](c1cccc(Cl)c1F)[C@]1(C(=O)Nc3cc(Cl)ccc31)N2CC1CC1 [Ib-167]
8.15	O=C(O)Cc1ccc2c(c1)nc1n2CC[C@H]2[C@@H]1[C@H](c1cccc(Cl)c1F)[C@]1(C(=O)Nc3cc(Cl)ccc31)N2CC1CC1 [Ib-169]
8.00	O=C(O)c1ccc2c(c1)nc1n2CC[C@H]2[C@@H]1[C@H](c1cccc(Cl)c1F)[C@]1(C(=O)Nc3nc(Cl)ccc31)N2CC1CC1 [Ib-171]
8.15	CCOc1cccc(CN2[C@H]3CCn4c(nc5cc(C(=O)O)ccc54)[C@H]3[C@H](c3cccc(Cl)c3F)[C@]23C(=O)Nc2nc(Cl)ccc23)c1 [Ib-173]
8.52	O=C(O)c1ccc2c(c1)nc1n2C[C@H]2[C@@H]1[C@H](c1cccc(Cl)c1F)[C@]1(C(=O)Nc3cc(Cl)ccc31)N2CC1CC1 [Ib-175]
8.70	O=C(O)c1ccc2c(c1)nc1n2C[C@H]2[C@@H]1[C@H](c1cccc(Cl)c1F)[C@]1(C(=O)Nc3cc(Cl)ccc31)N2CC1CC1 [Ib-176]
7.28	O=C(O)c1ccc2c(c1)nc1n2C[C@@H]2[C@H]1[C@@H](c1cccc(Cl)c1F)[C@@]1(C(=O)Nc3cc(Cl)ccc31)N2CC1CC1 [Ib-177]
8.40	O=C(O)c1ccc2nc3n(c2c1)C[C@H]1[C@@H]3[C@H](c2cccc(Cl)c2F)[C@]2(C(=O)Nc3cc(Cl)ccc32)N1CC1CC1 [Ib-178]
8.70	O=C(O)c1ccc2nc3n(c2c1)C[C@H]1[C@@H]3[C@H](c2cccc(Cl)c2F)[C@]2(C(=O)Nc3cc(Cl)ccc32)N1CC1CC1 [Ib-179]
7.08	O=C(O)c1ccc2nc3n(c2c1)C[C@@H]1[C@H]3[C@@H](c2cccc(Cl)c2F)[C@@]2(C(=O)Nc3cc(Cl)ccc32)N1CC1CC1 [Ib-180]
8.52	COCc1cccc(CN2[C@H]3Cn4c(nc5cc(C(=O)O)ccc54)[C@H]3[C@H](c3cccc(Cl)c3F)[C@]23C(=O)Nc2cc(Cl)ccc23)c1 [Ib-183]
8.70	COCc1cccc(CN2[C@H]3Cn4c(nc5cc(C(=O)O)ccc54)[C@H]3[C@H](c3cccc(Cl)c3F)[C@]23C(=O)Nc2cc(Cl)ccc23)c1 [Ib-184]
7.85	COCc1cccc(CN2[C@@H]3Cn4c(nc5cc(C(=O)O)ccc54)[C@@H]3[C@@H](c3cccc(Cl)c3F)[C@@]23C(=O)Nc2cc(Cl)ccc23)c1 [Ib-185]
8.40	COc1cccc(CCN2[C@H]3Cn4c(nc5cc(C(=O)O)ccc54)[C@H]3[C@H](c3cccc(Cl)c3F)[C@]23C(=O)Nc2cc(Cl)ccc23)c1 [Ib-186]
8.52	Cc1cc2c(cc1C(=O)O)nc1n2C[C@H]2[C@@H]1[C@H](c1cccc(Cl)c1F)[C@]1(C(=O)Nc3cc(Cl)ccc31)N2CC1CC1 [Ib-188]
8.52	Cc1c(C(=O)O)ccc2c1nc1n2C[C@H]2[C@@H]1[C@H](c1cccc(Cl)c1F)[C@]1(C(=O)Nc3cc(Cl)ccc31)N2CC1CC1 [Ib-189]
8.70	Cc1c(C(=O)O)ccc2c1nc1n2C[C@H]2[C@@H]1[C@H](c1cccc(Cl)c1F)[C@]1(C(=O)Nc3cc(Cl)ccc31)N2CC1CC1 [Ib-190]
8.22	CCN1[C@H]2Cn3c(nc4cc(C(=O)O)c(C)cc43)[C@H]2[C@H](c2cccc(Cl)c2F)[C@]12C(=O)Nc1cc(Cl)ccc12 [Ib-191]
8.52	O=C(O)c1ccc2c(nc3n2C[C@H]2[C@@H]3[C@H](c3cccc(Cl)c3F)[C@]3(C(=O)Nc4cc(Cl)ccc43)N2CC2CC2)c1C(F)(F)F [Ib-193]
8.22	O=C(O)c1cc2nc3n(c2cc1C(F)(F)F)C[C@H]1[C@@H]3[C@H](c2cccc(Cl)c2F)[C@]2(C(=O)Nc3cc(Cl)ccc32)N1CC1CC1 [Ib-195]
8.70	O=C(O)c1cc2nc3n(c2cc1OC(F)(F)F)C[C@H]1[C@@H]3[C@H](c2cccc(Cl)c2F)[C@]2(C(=O)Nc3cc(Cl)ccc32)N1CC1CC1 [Ib-197]
8.40	O=C(O)c1ccc2c(c1)nc1n2C[C@H]2[C@@H]1[C@H](c1cccc(Br)c1F)[C@]1(C(=O)Nc3cc(Cl)ccc31)N2CC1CC1 [Ib-198]
8.52	O=C(O)c1ccc2c(c1)nc1n2C[C@H]2[C@@H]1[C@H](c1cc(Cl)cs1)[C@]1(C(=O)Nc3cc(Cl)ccc31)N2CC1CC1 [Ib-200]
8.15	O=C(O)c1ccc2c(c1)nc1n2C[C@H]2[C@@H]1[C@H](c1ccc(Cl)s1)[C@]1(C(=O)Nc3cc(Cl)ccc31)N2CC1CC1 [Ib-202]

pIC50	Compound
8.70	Cc1c(C(=O)O)ccc2nc3n(c12)CC[C@H]1[C@@H]3[C@H](c2cccc(Cl)c2F)[C@]2(C(=O)Nc3cc(Cl)ccc32)N1CC1CC1 [Ib-204]
8.52	Cc1cc(C(=O)O)cc2c1nc1n2CC[C@H]2[C@@H]1[C@H](c1cccc(Cl)c1F)[C@]1(C(=O)Nc3cc(Cl)ccc31)N2CC1CC1 [Ib-205]
8.40	Cc1c(C(=O)O)ccc2nc3n(c12)CC[C@H]1[C@@H]3[C@H](c2cccc(Cl)c2F)[C@]2(C(=O)Nc3cc(Cl)ccc32)N1CC1CC1 [Ib-206]
8.10	Cc1c(C(=O)O)ccc2c1nc1n2CC[C@H]2[C@@H]1[C@H](c1ccnc(Cl)c1F)[C@]1(C(=O)Nc3cc(Cl)ccc31)N2CC1CC1 [Ib-207]
8.52	CNC(=O)c1ccc2c(c1)nc1n2CC[C@H]2[C@@H]1[C@H](c1cccc(Cl)c1F)[C@]1(C(=O)Nc3cc(Cl)ccc31)N2CC1CC1 [Ib-209]
8.40	NC(=O)c1ccc2c(c1)nc1n2CC[C@H]2[C@@H]1[C@H](c1cccc(Cl)c1F)[C@]1(C(=O)Nc3cc(Cl)ccc31)N2CC1CC1 [Ib-210]
7.96	CN(C)C(=O)c1ccc2c(c1)nc1n2CC[C@H]2[C@@H]1[C@H](c1cccc(Cl)c1F)[C@]1(C(=O)Nc3cc(Cl)ccc31)N2CC1CC1 [Ib-211]
8.30	O=C(NC1CC1)c1ccc2c(c1)nc1n2CC[C@H]2[C@@H]1[C@H](c1cccc(Cl)c1F)[C@]1(C(=O)Nc3cc(Cl)ccc31)N2CC1CC1 [Ib-212]
8.15	CC(C)(O)CNC(=O)c1ccc2c(c1)nc1n2CC[C@H]2[C@@H]1[C@H](c1cccc(Cl)c1F)[C@]1(C(=O)Nc3cc(Cl)ccc31)N2CC1CC1 [Ib-213]
8.52	O=C(NC(CO)CO)c1ccc2c(c1)nc1n2CC[C@H]2[C@@H]1[C@H](c1cccc(Cl)c1F)[C@]1(C(=O)Nc3cc(Cl)ccc31)N2CC1CC1 [Ib-214]
8.40	O=C(NCCO)c1ccc2c(c1)nc1n2CC[C@H]2[C@@H]1[C@H](c1cccc(Cl)c1F)[C@]1(C(=O)Nc3cc(Cl)ccc31)N2CC1CC1 [Ib-215]
8.15	COCCNC(=O)c1ccc2c(c1)nc1n2CC[C@H]2[C@@H]1[C@H](c1cccc(Cl)c1F)[C@]1(C(=O)Nc3cc(Cl)ccc31)N2CC1CC1 [Ib-216]
8.40	COCC(COC)NC(=O)c1ccc2c(c1)nc1n2CC[C@H]2[C@@H]1[C@H](c1cccc(Cl)c1F)[C@]1(C(=O)Nc3cc(Cl)ccc31)N2CC1CC1 [Ib-217]
8.22	O=C(NC(CO)(CO)CO)c1ccc2c(c1)nc1n2CC[C@H]2[C@@H]1[C@H](c1cccc(Cl)c1F)[C@]1(C(=O)Nc3cc(Cl)ccc31)N2CC1CC1 [Ib-218]
8.30	COCCOCCNC(=O)c1ccc2c(c1)nc1n2CC[C@H]2[C@@H]1[C@H](c1cccc(Cl)c1F)[C@]1(C(=O)Nc3cc(Cl)ccc31)N2CC1CC1 [Ib-219]
8.00	O=C(c1ccc2c(c1)nc1n2CC[C@H]2[C@@H]1[C@H](c1cccc(Cl)c1F)[C@]1(C(=O)Nc3cc(Cl)ccc31)N2CC1CC1)N1CCOCC1 [Ib-220]
8.00	CN1CCN(C(=O)c2ccc3c(c2)nc2n3CC[C@H]3[C@@H]2[C@H](c2cccc(Cl)c2F)[C@]2(C(=O)Nc4cc(Cl)ccc42)N3CC2CC2)CC1 [Ib-221]
8.05	NCCNC(=O)c1ccc2c(c1)nc1n2CC[C@H]2[C@@H]1[C@H](c1cccc(Cl)c1F)[C@]1(C(=O)Nc3cc(Cl)ccc31)N2CC1CC1 [Ib-222]
8.30	CN(C)CCNC(=O)c1ccc2c(c1)nc1n2CC[C@H]2[C@@H]1[C@H](c1cccc(Cl)c1F)[C@]1(C(=O)Nc3cc(Cl)ccc31)N2CC1CC1 [Ib-223]
8.30	CC1(NC(=O)c2ccc3c(c2)nc2n3CC[C@H]3[C@@H]2[C@H](c2cccc(Cl)c2F)[C@]2(C(=O)Nc4cc(Cl)ccc42)N3CC2CC2)COC1 [Ib-225]
8.30	CC1(CNC(=O)c2ccc3c(c2)nc2n3CC[C@H]3[C@@H]2[C@H](c2cccc(Cl)c2F)[C@]2(C(=O)Nc4cc(Cl)ccc42)N3CC2CC2)COC1 [Ib-226]
8.40	O=C(c1ccc2c(c1)nc1n2CC[C@H]2[C@@H]1[C@H](c1cccc(Cl)c1F)[C@]1(C(=O)Nc3cc(Cl)ccc31)N2CC1CC1)N1CC(O)C1 [Ib-227]
8.30	CN1CC(NC(=O)c2ccc3c(c2)nc2n3CC[C@H]3[C@@H]2[C@H](c2cccc(Cl)c2F)[C@]2(C(=O)Nc4cc(Cl)ccc42)N3CC2CC2)C1 [Ib-228]
8.40	O=C(NC1COCC1O)c1ccc2c(c1)nc1n2CC[C@H]2[C@@H]1[C@H](c1cccc(Cl)c1F)[C@]1(C(=O)Nc3cc(Cl)ccc31)N2CC1CC1 (some centres unmarked) [Ib-229]
8.00	CN(O)C(=O)c1ccc2c(c1)nc1n2CC[C@H]2[C@@H]1[C@H](c1cccc(Cl)c1F)[C@]1(C(=O)Nc3cc(Cl)ccc31)N2CC1CC1 [Ib-230]
